We go through one substance from patent publication US8193248B2, “Contraceptive composition” (Starpharma Pty Limited, priority 2006, dated 2012).

The subject of data set [1] is motile sperm (normal semen sample). The data set is described as follows: modified Sander-Cramer Assay, spermicidal activity. It counts as cell-based. Particulars: control; 30 seconds at room temperature. As to the method:
This assay determines the sperm-immobilising minimum effective concentration (MEC).
Serial two-fold dilutions were prepared from stock solutions at 2% (for water soluble compounds) or 4% (for water insoluble compounds). 250 μL of each dilution were mixed with […] of a normal semen sample containing 60×10^6 motile sperm/mL. Normality of the semen samples was assessed with the aid of a CASA system (Hamilton-Thorne, IVOS; Beverly, Mass.). Semen and compound aliquots were microscopically examined while incubating at room temperature for 30 seconds. If any motile spermatozoon were found, either in the initial examination or after one hour incubation in medium, that dilution was labelled as “failed”. The MEC for a given compound was calculated using the highest dilution that induces total sperm immobilization. 6 to 10 semen samples were used to obtain more reliable results. N9 (MEC=˜0.1-0.2 mg/mL) and solvents were run as control.

Data set [2] deals with herpes simplex virus type 2 (HSV-2). Particulars: previous studies, cited from earlier work.

On to Nonoxynol-9 [N9], for which, in data set [1], the “sperm-immobilising minimum effective concentration (MEC)” value fell in the range of 0.1 to 0.2 mg/mL. Moreover, in data set [2], the “animals infected with HSV-2” value is listed as 29 out of 42. Besides, the “relative susceptibility to HSV-2 infection vs control animals” value in data set [2] (effective ID of low-dose inoculum in test mice / ID in controls) is given as 29.7 times.
